Results reported in the NIST ThermoML archive (doi:10.1016/j.fluid.2018.10.006).
Where “and” joins values, the source holds several entries; their conditions need not be identical. Equal entries are not always repeated. ± gives the expanded uncertainty stated by the source.

Settings: Fluid (supercritical or subcritical phases), Coaxial cylinder method

CCCCCC [hexane]
thermal conductivity
Settings | 510.36 K | 511.55 K
900 kPa | – | 0.03854 ± 0.002 W/m/K
1000 kPa | – | 0.03823 ± 0.002 W/m/K
1100 kPa | – | 0.03832 ± 0.002 W/m/K
1200 kPa | – | 0.03859 ± 0.002 W/m/K
1300 kPa | – | 0.03877 ± 0.002 W/m/K
1400 kPa | – | 0.03895 ± 0.002 W/m/K
1500 kPa | – | 0.03914 ± 0.002 W/m/K
1600 kPa | – | 0.03932 ± 0.002 W/m/K
1700 kPa | – | 0.0397 ± 0.002 W/m/K
1800 kPa | – | 0.04008 ± 0.0021 W/m/K
1900 kPa | – | 0.04047 ± 0.0021 W/m/K
2000 kPa | – | 0.04087 ± 0.0021 W/m/K
2100 kPa | – | 0.04127 ± 0.0021 W/m/K
2200 kPa | – | 0.0419 ± 0.0021 W/m/K
2300 kPa | – | 0.04254 ± 0.0022 W/m/K
2400 kPa | – | 0.04342 ± 0.0022 W/m/K
2462 kPa | – | 0.04388 ± 0.0022 W/m/K
2466 kPa | – | 0.04388 ± 0.0022 W/m/K
2500 kPa | – | 0.04434 ± 0.0022 W/m/K
2600 kPa | – | 0.0453 ± 0.0023 W/m/K
2700 kPa | – | 0.04656 ± 0.0023 W/m/K
2800 kPa | – | 0.04846 ± 0.0024 W/m/K
2900 kPa | – | 0.05075 ± 0.0025 W/m/K
2973 kPa | – | 0.05292 ± 0.0026 W/m/K
2988 kPa | – | 0.05356 ± 0.0026 W/m/K
3050 kPa | – | 0.05558 ± 0.0027 W/m/K
3065 kPa | – | 0.05634 ± 0.0027 W/m/K
3084 kPa | – | 0.05785 ± 0.0028 W/m/K
3096 kPa | – | 0.05908 ± 0.0029 W/m/K
3103 kPa | – | 0.05968 ± 0.0029 W/m/K
3110 kPa | – | 0.06064 ± 0.003 W/m/K
3116 kPa | – | 0.06128 ± 0.003 W/m/K
3130 kPa | – | 0.06341 ± 0.0032 W/m/K
3140 kPa | – | 0.06508 ± 0.0033 W/m/K
3145 kPa | – | 0.06587 ± 0.0033 W/m/K
3150 kPa | – | 0.06678 ± 0.0033 W/m/K
3155 kPa | – | 0.06787 ± 0.0034 W/m/K
3160 kPa | – | 0.06879 ± 0.0034 W/m/K
3165 kPa | – | 0.0699 ± 0.0034 W/m/K
3168 kPa | – | 0.07058 ± 0.0034 W/m/K
3170 kPa | – | 0.07104 ± 0.0034 W/m/K
3173 kPa | – | 0.0718 ± 0.0034 W/m/K
3175 kPa | – | 0.07228 ± 0.0035 W/m/K
3180 kPa | – | 0.07336 ± 0.0035 W/m/K
3183 kPa | – | 0.07404 ± 0.0035 W/m/K
3185 kPa | – | 0.07447 ± 0.0035 W/m/K
3187 kPa | – | 0.07504 ± 0.0035 W/m/K
3190 kPa | – | 0.07571 ± 0.0035 W/m/K
3192 kPa | – | 0.07616 ± 0.0035 W/m/K
3193 kPa | – | 0.07629 ± 0.0036 W/m/K
3195 kPa | – | 0.07668 ± 0.0036 W/m/K
3200 kPa | – | 0.07761 ± 0.0036 W/m/K
3205 kPa | – | 0.07821 ± 0.0037 W/m/K
3212 kPa | – | 0.07869 ± 0.0039 W/m/K
3220 kPa | – | 0.07869 ± 0.0039 W/m/K
3225 kPa | – | 0.07855 ± 0.0039 W/m/K
3230 kPa | 0.07155 ± 0.0034 W/m/K | 0.07767 ± 0.0038 W/m/K
3232 kPa | 0.07138 ± 0.0034 W/m/K | –
3234 kPa | 0.07128 ± 0.0034 W/m/K | –
3235 kPa | – | 0.07701 ± 0.0037 W/m/K
3236 kPa | 0.07122 ± 0.0033 W/m/K | –
3238 kPa | 0.07122 ± 0.0033 W/m/K | –
3240 kPa | – | 0.07636 ± 0.0037 W/m/K
3242 kPa | 0.07105 ± 0.0033 W/m/K | –
3245 kPa | 0.07105 ± 0.0033 W/m/K | 0.07571 ± 0.0036 W/m/K
3248 kPa | 0.07105 ± 0.0033 W/m/K | –
3250 kPa | 0.07072 ± 0.0033 W/m/K | 0.07508 ± 0.0035 W/m/K
3252 kPa | 0.07072 ± 0.0033 W/m/K | –
3254 kPa | 0.07072 ± 0.0033 W/m/K | –
3255 kPa | – | 0.07386 ± 0.0034 W/m/K
3256 kPa | 0.07039 ± 0.0033 W/m/K | –
3258 kPa | 0.07039 ± 0.0033 W/m/K | –
3260 kPa | 0.07039 ± 0.0033 W/m/K | 0.07266 ± 0.0034 W/m/K
3265 kPa | 0.0704 ± 0.0033 W/m/K | 0.07151 ± 0.0033 W/m/K
3270 kPa | 0.07008 ± 0.0033 W/m/K | 0.07151 ± 0.0033 W/m/K
3275 kPa | – | 0.07209 ± 0.0034 W/m/K
3280 kPa | 0.06975 ± 0.0033 W/m/K | 0.07209 ± 0.0034 W/m/K
3285 kPa | – | 0.07209 ± 0.0034 W/m/K
3290 kPa | 0.0696 ± 0.0033 W/m/K | 0.07267 ± 0.0034 W/m/K
3295 kPa | – | 0.07267 ± 0.0034 W/m/K
3300 kPa | 0.06944 ± 0.0033 W/m/K | 0.07151 ± 0.0033 W/m/K
3305 kPa | – | 0.07151 ± 0.0033 W/m/K
3310 kPa | 0.06944 ± 0.0033 W/m/K | 0.07151 ± 0.0033 W/m/K
3315 kPa | – | 0.07095 ± 0.0033 W/m/K
3320 kPa | 0.06912 ± 0.0032 W/m/K | –
3325 kPa | – | 0.07095 ± 0.0033 W/m/K
3330 kPa | – | 0.07095 ± 0.0033 W/m/K
3335 kPa | – | 0.07144 ± 0.0033 W/m/K
3340 kPa | 0.06881 ± 0.0032 W/m/K | 0.07144 ± 0.0033 W/m/K
3345 kPa | – | 0.07144 ± 0.0033 W/m/K
3350 kPa | 0.0685 ± 0.0032 W/m/K | 0.07144 ± 0.0033 W/m/K
3360 kPa | 0.0685 ± 0.0032 W/m/K | 0.07088 ± 0.0033 W/m/K
3365 kPa | – | 0.07088 ± 0.0033 W/m/K
3370 kPa | 0.0685 ± 0.0032 W/m/K | 0.07033 ± 0.0033 W/m/K
3375 kPa | – | 0.07033 ± 0.0033 W/m/K
3380 kPa | 0.0685 ± 0.0032 W/m/K | –
3385 kPa | – | 0.07033 ± 0.0033 W/m/K
3392 kPa | 0.06834 ± 0.0032 W/m/K | –
3395 kPa | – | 0.07033 ± 0.0033 W/m/K
3400 kPa | – | 0.07033 ± 0.0033 W/m/K
3410 kPa | – | 0.07088 ± 0.0033 W/m/K
3450 kPa | 0.06819 ± 0.0032 W/m/K | 0.07081 ± 0.0033 W/m/K
3455 kPa | – | 0.07081 ± 0.0033 W/m/K
3460 kPa | – | 0.07062 ± 0.0033 W/m/K and 0.07064 ± 0.0033 W/m/K
3470 kPa | – | 0.07062 ± 0.0033 W/m/K
3480 kPa | – | 0.07051 ± 0.0033 W/m/K
3490 kPa | – | 0.07054 ± 0.0033 W/m/K
3500 kPa | 0.0685 ± 0.0032 W/m/K | 0.07026 ± 0.0033 W/m/K
3520 kPa | 0.0686 ± 0.0032 W/m/K | –
3540 kPa | 0.0686 ± 0.0032 W/m/K | –
3550 kPa | – | 0.0701 ± 0.0033 W/m/K
3560 kPa | 0.0686 ± 0.0032 W/m/K | –
3580 kPa | 0.0686 ± 0.0032 W/m/K | –
3600 kPa | 0.06851 ± 0.0032 W/m/K | 0.07 ± 0.0033 W/m/K
3620 kPa | 0.06851 ± 0.0032 W/m/K | –
3640 kPa | 0.06854 ± 0.0032 W/m/K | –
3650 kPa | 0.06857 ± 0.0032 W/m/K | 0.06992 ± 0.0033 W/m/K
3670 kPa | 0.0686 ± 0.0032 W/m/K | –
3680 kPa | 0.06861 ± 0.0032 W/m/K | –
3700 kPa | 0.06864 ± 0.0032 W/m/K | 0.06992 ± 0.0033 W/m/K
3720 kPa | 0.06873 ± 0.0032 W/m/K | –
3740 kPa | 0.06883 ± 0.0032 W/m/K | –
3750 kPa | 0.06886 ± 0.0032 W/m/K | 0.06969 ± 0.0033 W/m/K
3800 kPa | 0.06913 ± 0.0032 W/m/K | 0.06964 ± 0.0033 W/m/K
3810 kPa | 0.06917 ± 0.0032 W/m/K | –
3820 kPa | 0.06922 ± 0.0032 W/m/K | –
3830 kPa | 0.06922 ± 0.0032 W/m/K | –
3840 kPa | 0.06919 ± 0.0032 W/m/K | –
3850 kPa | – | 0.06975 ± 0.0033 W/m/K
3860 kPa | 0.06928 ± 0.0032 W/m/K | –
3900 kPa | – | 0.06992 ± 0.0033 W/m/K
3950 kPa | – | 0.06992 ± 0.0033 W/m/K
3970 kPa | 0.06973 ± 0.0033 W/m/K | –
3980 kPa | 0.06964 ± 0.0033 W/m/K | –
4000 kPa | – | 0.06992 ± 0.0033 W/m/K
4010 kPa | 0.06977 ± 0.0033 W/m/K | –
4100 kPa | – | 0.07009 ± 0.0033 W/m/K
4150 kPa | – | 0.07009 ± 0.0033 W/m/K
4300 kPa | – | 0.0702 ± 0.0033 W/m/K
4400 kPa | – | 0.07048 ± 0.0033 W/m/K
4500 kPa | – | 0.07048 ± 0.0033 W/m/K
4600 kPa | – | 0.07077 ± 0.0033 W/m/K
4700 kPa | – | 0.07105 ± 0.0033 W/m/K
4800 kPa | – | 0.07105 ± 0.0033 W/m/K
